# Source: US20240101573A1, “MACROCYCLIC K-RAS G12C INHIBITOR, PREPARATION METHOD THEREFOR AND USE THEREOF” (Abbisko Therapeutics Co., Ltd., priority 2020, published 2024)
# pIC50: −log10 of the molar value.
# Legend:
# H358 = assay: Anti-proliferation 2D CTG test (H358); assay type: cell-based; settings: H358 cells, 1500 cells/well, 5 days incubation with compound, CTG readout
# Description: (§1) When the cell confluency was 80%, the cells were isolated with 0.25% trypsin. The isolated cells were resuspended in 5 mL of fresh cell culture medium and centrifuged to collect the cells. The number of cells were counted at the same time. Then, the cells were suspended in a culture medium at a moderate concentration. The cells were placed into a 96-well plate with 1500 cells/well for H358 and 500 cells/well for MIAPACA-2. The 96-well plate was placed in an incubator at 37° C. and incubated overnight.
# (§2) 2) Day 1: processing of compound
# (§3) A 2 mM stock solution was serially diluted at 10 points at a ratio of 1:3. 5× culture medium containing the compound was transferred to the corresponding wells of 96 wells. The final peak concentration of the compound was […], and the final concentration of DMSO was 0.5%. The 96-well plate was placed in the incubator at 37° C. and incubated for 5 days.
# (§4) 3) Baseline reading. 4) Day 6: reading of signals
# (§5) A detection reagent (CTG) was added at 50 μL/well, and the signals were read in an Envision instrument.
# (§6) The percentage of inhibition ([…]) at each compound concentration was calculated based on the signals from the HPE and ZPE control wells contained in each assay plate and the fluorescence signals from individual compound wells. The inhibition rate in the ZPE control wells containing the enzyme and substrate was 0%, and the inhibition rate in the HPE control wells only containing the substrate was […]. By testing the compound in terms of numeric concentration and inhibition percentage, the compound concentration required for […] inhibition (IC50) was determined using a four-parameter logarithmic dose-response equation. The endpoint value (IC50) of the reference compound was evaluated in each experiment as a quality control measure. If the endpoint value was within three times the expected value, the experiment was considered acceptable.
# MIA PaCa-2 = assay: Anti-proliferation 2D CTG test (MIA PaCa-2); assay type: cell-based; settings: MIAPACA-2 cells, 500 cells/well, 5 days incubation with compound, CTG readout
# Description: as §1, §2, §3, §4, §5, §6
# [1] = Homo sapiens, MIA PaCa-2, 120 h
SMILES,pIC50 (H358),pIC50 (MIA PaCa-2),"pIC50 (H358; Homo sapiens, NCI-H358, 120 h)",pIC50 (MIA PaCa-2; [1])
"C=CC(=O)N1CCN(c2nc(=O)n3c4nc(c(F)cc24)-c2c(F)cccc2OCC(OCCF)C(O)c2ccnc(C(C)C)c2-3)[C@@H](C)C1 (stereo partly drawn) [Example 25, 2^4-((S)-4-acryloyl-2-methylpiperazin-1-yl)-2^6,3^6-difluoro-6-(2-fluoroethoxy)-7-hydroxy-1^2-isopropyl-2^1,2^2-dihydro-4-oxa-2(1,7)-pyrido[2,3-d]pyrimidina-1(3,4)-pyridina-3(1,2)-benzocycloheptane-2^2-one]",7.44,7.82,,
"C=CC(=O)N1CCN(c2nc(=O)n3c4nc(c(F)cc24)-c2c(F)cccc2OCC(O)C(OC)c2ccnc(C(C)C)c2-3)[C@@H](C)C1 (stereo partly drawn) [Example 26, 2^4-((S)-4-acryloyl-2-methylpiperazin-1-yl)-7-methoxy-2^6,3^6-difluoro-6-hydroxy-1^2-isopropyl-2^1,2^2-dihydro-4-oxa-2(1,7)-pyrido[2,3-d]pyrimidina-1(3,4)-pyridina-3(1,2)-benzocycloheptane-2^2-one]",8.70,9.00,,
"C=CC(=O)N1CCN(c2nc(=O)n3c4nc(c(F)cc24)-c2c(F)cccc2OCC(OC)C(O)c2ccnc(C(C)C)c2-3)[C@@H](C)C1 (stereo partly drawn) [Example 27, 24-((S)-4-acryloyl-2-methylpiperazin-1-yl)-6-methoxy-2^6,3^6-difluoro-7-hydroxy-1^2-isopropyl-2^1,2^2-dihydro-4-oxa-2(1,7)-pyrido[2,3-d]pyrimidina-1(3,4)-pyridina-3(1,2)-benzocycloheptane-2^2-one]",,,8.05,8.40
"C=CC(=O)N1CCN(c2nc(=O)n3c4nc(c(F)cc24)-c2c(F)cccc2OCC(O)C(OCC)c2ccnc(C(C)C)c2-3)[C@@H](C)C1 (stereo partly drawn) [Example 28, 2^4-((S)-4-acryloyl-2-methylpiperazin-1-yl)-7-ethoxy-2^6,3^6-difluoro-6-hydroxy-1^2-isopropyl-2^1,2^2-dihydro-4-oxa-2(1,7)-pyrido[2,3-d]pyrimidina-1(3,4)-pyridina-3(1,2)-benzocycloheptane-2^2-one]",7.55,7.57,,
"C=CC(=O)N1CCN(c2nc(=O)n3c4nc(c(F)cc24)-c2c(F)cccc2OCC(OCC)C(O)c2ccnc(C(C)C)c2-3)[C@@H](C)C1 (stereo partly drawn) [Example 29, 2^4-((S)-4-acryloyl-2-methylpiperazin-1-yl)-6-ethoxy-2^6,3^6-difluoro-7-hydroxy-1^2-isopropyl-2^1,2^2-dihydro-4-oxa-2(1,7)-pyrido[2,3-d]pyrimidina-1(3,4)-pyridina-3(1,2)-benzocycloheptane-2^2-one]",8.22,8.22,,
"C=CC(=O)N1CCN(c2nc(=O)n3c4nc(c(F)cc24)-c2c(F)cccc2OCC(O)C(OCC(F)F)c2ccnc(C(C)C)c2-3)[C@@H](C)C1 (stereo partly drawn) [Example 32, 2^4-((S)-4-acryloyl-2-methylpiperazin-1-yl)-7-(2,2-difluoroethoxy)-2^6,3^6-difluoro-6-hydroxy-1^2-isopropyl-2^1,2^2-dihydro-4-oxa-2(1,7)-pyrido[2,3-d]pyrimidina-1(3,4)-pyridina-3(1,2)-benzocycloheptane-2^2-one]",7.39,7.16,,
"C=CC(=O)N1CCN(c2nc(=O)n3c4nc(c(F)cc24)-c2c(F)cccc2OCC(OCC(F)F)C(O)c2ccnc(C(C)C)c2-3)[C@@H](C)C1 (stereo partly drawn) [Example 33, 2^4-((S)-4-acryloyl-2-methylpiperazin-1-yl)-6-(2,2-difluoroethoxy)-2^6,3^6-difluoro-7-hydroxy-1^2-isopropyl-2^1,2^2-dihydro-4-oxa-2(1,7)-pyrido[2,3-d]pyrimidina-1(3,4)-pyridina-3(1,2)-benzocycloheptane-2^2-one]",7.38,6.81,,
"C=CC(=O)N1CCN(c2nc(=O)n3c4nc(c(F)cc24)-c2c(F)cccc2OCC(OC(C)C)C(O)c2ccnc(C(C)C)c2-3)[C@@H](C)C1 (stereo partly drawn) [Example 34, 2^4-((S)-4-acryloyl-2-methylpiperazin-1-yl)-6-isopropoxy-2^6,3^6-difluoro-7-hydroxy-1^2-isopropyl-2^1,2^2-dihydro-4-oxa-2(1,7)-pyrido[2,3-d]pyrimidina-1(3,4)-pyridina-3(1,2)-benzocycloheptane-2^2-one]",8.40,8.15,,
"C=CC(=O)N1C[C@H](C)N(c2nc(=O)n3c4nc(c(F)cc24)-c2c(F)cccc2OCC(O)C(OCC)c2ccnc(C(C)C)c2-3)C[C@H]1C (stereo partly drawn) [Example 35, 2^4-((2S,5R)-4-acryloyl-2,5-dimethylpiperazin-1-yl)-7-ethoxy-2^6,3^6-difluoro-6-hydroxy-1^2-isopropyl-2^1,2^2-dihydro-4-oxa-2(1,7)-pyrido[2,3-d]pyrimidina-1(3,4)-pyridina-3(1,2)-benzocycloheptane-2^2-one]",7.96,8.40,,
"C=CC(=O)N1C[C@H](C)N(c2nc(=O)n3c4nc(c(F)cc24)-c2c(F)cccc2OCC(OCC)C(O)c2ccnc(C(C)C)c2-3)C[C@H]1C (stereo partly drawn) [Example 36, (R)-2^4-((2S,5R)-4-acryloyl-2,5-dimethylpiperazin-1-yl)-6-ethoxy-2^6,3^6-difluoro-7-hydroxy-1^2-isopropyl-2^1,2^2-dihydro-4-oxa-2(1,7)-pyrido[2,3-d]pyrimidina-1(3,4)-pyridina-3(1,2)-benzocycloheptane-2^2-one]",,,9.00,9.00
"C=CC(=O)N1CCN(c2nc(=O)n3c4nc(c(F)cc24)-c2c(F)cccc2OCC(O)C(OCCF)c2ccnc(C(C)C)c2-3)[C@@H](C)C1 (stereo partly drawn) [Example 37, (R)-2^4-((S)-4-acryloyl-2-methylpiperazin-1-yl)-2^6,3^6-difluoro-7-(2-fluoroethoxy)-6-hydroxy-1^2-isopropyl-2^1,2^2-dihydro-4-oxa-2(1,7)-pyrido[2,3-d]pyrimidina-1(3,4)-pyridina-3(1,2)-benzocycloheptane-2^2-one]",7.85,8.30,,
"C=CC(=O)N1CCN(c2nc(=O)n3c4nc(c(F)cc24)-c2c(F)cccc2OCC(OCCF)C(O)c2ccnc(C(C)C)c2-3)[C@@H](C)C1 (stereo partly drawn) [Example 39, (R)-2^4-((S)-4-acryloyl-2-methylpiperazin-1-yl)-2^6,3^6-difluoro-6-(2-fluoroethoxy)-7-hydroxy-1^2-isopropyl-2^1,2^2-dihydro-4-oxa-2(1,7)-pyrido[2,3-d]pyrimidina-1(3,4)-pyridina-3(1,2)-benzocycloheptane-2^2-one]",8.40,8.70,,
"C=CC(=O)N1CCN(c2nc(=O)n3c4nc(c(F)cc24)-c2c(F)cccc2OCC(O)C(OC)c2ccnc(C(C)C)c2-3)[C@@H](C)C1 (stereo partly drawn) [Example 41, (R)-2^4-((S)-4-acryloyl-2-methylpiperazin-1-yl)-7-methoxy-2^6,3^6-difluoro-6-hydroxy-1^2-isopropyl-2^1,2^2-dihydro-4-oxa-2(1,7)-pyrido[2,3-d]pyrimidina-1(3,4)-pyridina-3(1,2)-benzocycloheptane-2^2-one]",8.52,8.70,,
"C=CC(=O)N1CCN(c2nc(=O)n3c4nc(c(F)cc24)-c2c(F)cccc2OCC(O)C(OC)c2ccnc(C(C)C)c2-3)[C@@H](C)C1 (stereo partly drawn) [Example 42, (S)-2^4-((S)-4-acryloyl-2-methylpiperazin-1-yl)-7-methoxy-2^6,3^6-difluoro-6-hydroxy-1^2-isopropyl-2^1,2^2-dihydro-4-oxa-2(1,7)-pyrido[2,3-d]pyrimidina-1(3,4)-pyridina-3(1,2)-benzocycloheptane-2^2-one]",6.01,6.17,,
"C=CC(=O)N1CCN(c2nc(=O)n3c4nc(c(F)cc24)-c2c(F)cccc2OCC(O)C(OCC)c2ccnc(C(C)C)c2-3)[C@@H](C)C1 (stereo partly drawn) [Example 43, (R)-2^4-((S)-4-acryloyl-2-methylpiperazin-1-yl)-7-ethoxy-2^6,3^6-difluoro-6-hydroxy-1^2-isopropyl-2^1,2^2-dihydro-4-oxa-2(1,7)-pyrido[2,3-d]pyrimidina-1(3,4)-pyridina-3(1,2)-benzocycloheptane-2^2-one]",8.30,8.22,,
"C=CC(=O)N1CCN(c2nc(=O)n3c4nc(c(F)cc24)-c2c(F)cccc2OCC(O)C(OCC)c2ccnc(C(C)C)c2-3)[C@@H](C)C1 (stereo partly drawn) [Example 44, (S)-2^4-((S)-4-acryloyl-2-methylpiperazin-1-yl)-7-ethoxy-2^6,3^6-difluoro-6-hydroxy-1^2-isopropyl-2^1,2^2-dihydro-4-oxa-2(1,7)-pyrido[2,3-d]pyrimidina-1(3,4)-pyridina-3(1,2)-benzocycloheptane-2^2-one]",6.60,6.90,,
"C=CC(=O)N1CCN(c2nc(=O)n3c4nc(c(F)cc24)-c2c(F)cccc2OCC(OCC)C(O)c2ccnc(C(C)C)c2-3)[C@@H](C)C1 (stereo partly drawn) [Example 45, (R)-2^4-((S)-4-acryloyl-2-methylpiperazin-1-yl)-6-ethoxy-2^6,3^6-difluoro-7-hydroxy-1^2-isopropyl-2^1,2^2-dihydro-4-oxa-2(1,7)-pyrido[2,3-d]pyrimidina-1(3,4)-pyridina-3(1,2)-benzocycloheptane-2^2-one]",8.70,8.70,,
